Experimental findings from patent US20080146630A1, “CRYSTAL FORM OF 2-(3-FLUORO-4-HYDROXYPHENYL)-7-VINYL-1,3-BENZOXAZOL-5-OL” (WYETH, priority 2006, published 2008) are described below.

This series can be described thus: Conversion of Form E on suspending and stirring in solvent (slurry). It counts as physicochemical. An excerpt: The anhydrate crystal form (Form E) can be converted to other crystal forms under suitable conditions.

The structures appear in SMILES notation.

For `C=Cc1cc(O)cc2nc(-c3ccc(O)c(F)c3)oc12` [Form E, 2-(3-fluoro-4-hydroxyphenyl)-7-vinyl-1,3-benzoxazol-5-ol], the “crystal form conversion after suspension and stirring” value is, setting by setting: (suspended and stirred in acetone at room temperature for seven days) “another anhydrate crystal form is obtained”; (suspended and stirred in ethanol at room temperature for seven days) “another anhydrate crystal form is obtained”; (suspended and stirred in water at room temperature for seven days) “converted to a hydrate crystal form”.
